Experimental findings from patent publication EP0215300A2, “Use of diazaphosphorines for combating endoparasites” (BAYER AG, priority 1985, dated 1987) are described below.

One assay relates to Caenorhabditis elegans. Nature of the assay: In vitro nematode test (inhibition of reproduction). Type of assay: cell-based. The following applies: 168 h; concentration at which reproduction is prevented; 7 days at 22°C; E.coli suspension in M9 buffer; read-out: Minimale effektive Dosis. How it is done:
10-^4 g Wirkstoff werden in 1 ml Wasser oder 0,1 ml Dimethylsulfoxid (DMSO) gelöst. Diese Lösung wurde auf eine Replica-Platte gegeben. Dazu wurden 2 ml einer E.coli-Suspension gegeben, zu der man 10-20 weibliche Tiere oder Larven von Caenorhabditis elegans in 0,5 ml sterile M9 Pufferlösung gegeben hat. Die E.coli-Suspension wurde hergestellt indem man 300 ml einer Ubernachtkultur eines Uracil-bedürftigen E.coli-Stammes mit 1,8 1 steriler M9 Pufferlösung versetzte.
Der Versuchsansatz wurde 7 Tage bei 22°C inkubiert und danach ausgewertet. Es wurde bewertet inwieweit der Wirkstoff die Vermehrung beeinträchtigt und die Konzentration angegeben bei der die Vermehrung verhindert wird. Dabei wurden folgende Ergebnisse erhalten: • In vitro Nematodentest

For the next assay, the system named is Strongyloides ratti. The assay is described as follows: In vivo nematode test in experimentally infected rats. The following applies: rats (Ratten), oral by gavage on three consecutive days from day 7 after infection, killed day 13, at least 95 % of parasites killed, read-out: minimale effektive Dosis. The text has this:
Experimentell mit Strongyloides ratti infizierte Ratten werden 7 Tage nach der Infektion an drei aufeinanderfolgenden Tagen oral mittels Schlundsonde behandelt. Die Tiere werden 13 Tage nach der Infektion getötet und die Zahl der Parasiten bestimmt. Es wird die Wirkstoffkonzentration angegeben, bei der mindestens 95 % der Parasiten abgetötet wurden (minimale effektive Dosis): […]

The subject of a further assay is Hymenolepis nana. The assay is described as follows: In vivo nematode test in experimentally infected mice. The conditions noted are these: Rodentolepis nana; mice (Mäuse); oral by gavage on four consecutive days from day 10 after infection; killed day 17; at least 95 % of parasites killed; read-out: minimale effektive Dosis. The text has this: Experimeltell mit Hymenolepis nana infizierte Mäuse werden 10 Tage nach der Infektion an vier aufeinanderfolgenden Tagen oral mittels Schlundsonde behandelt. Die Tiere werden 17 Tage nach Infektion getötet und die Zahl der Parasiten bestimmt. Es wird die Wirkstoffkonzentration angegeben, bei der mindestens 95 % der Parasiten abgetötet wurden (minimale effektive Dosis): […]

Another assay has as its system Heterakis spumora. Described as above. The conditions noted are these: Mus musculus; mice (Mäuse); oral by gavage on four consecutive days from day 32 after infection; killed day 39; at least 95 % of parasites killed; read-out: minimale effektive Dosis. The text has this:
Experimentell mit Heterakis spumora infizierte Mäuse werden 32 Tage nach der Infektion an vier aufeinanderfolgenden Tagen oral mittels Schlundsonde behandelt. Die Tiere werden 39 Tage nach der Infektion getötet und die Zahl der Parasiten bestimmt. Es wird die Wirkstoffkonzentration angegeben bei der mindestens 95 % der Parasiten abgetötet wurden (minimale effektive Dosis): […]

On to `CN1C(=O)C(C(=O)Nc2cccc(C(F)(F)F)c2)C(=O)N(C)P1(=O)Oc1ccc(Cl)cc1` (stereo not shown) [Beispiel 1], for which, in the assay with Caenorhabditis elegans, the minimal effective concentration was 10 µg/mL.
With `CC(C)N1C(=O)C(C(=O)Nc2cccc(Cl)c2)C(=O)N(C(C)C)P1(=O)Oc1cccc(Cl)c1` (stereo not shown) [Beispiel 2], the minimal effective concentration in the assay with Caenorhabditis elegans is 100 µg/mL.
In the case of `CC(C)N1C(=O)C(C(=O)Nc2cccc(C(F)(F)F)c2)C(=O)N(C(C)C)P1(=O)Oc1cccc(Cl)c1` (stereo not shown) [Beispiel 3], in the assay on Caenorhabditis elegans, the minimal effective concentration is 100 µg/mL.
Turning to `CN1C(=O)C(C(=O)Nc2ccc(C(F)(F)F)cc2)C(=O)N(C)P1(=O)Oc1ccc(Cl)cc1` (stereo not shown) [Beispiel 6], in the assay with Caenorhabditis elegans, the minimal effective concentration was determined as 1 µg/mL.
As for `CN1C(=O)C(C(=O)Nc2ccc(C(F)(F)F)cc2)C(=O)N(C)P1(=O)Oc1ccccc1` (stereo not shown) [Beispiel 8], the minimal effective dose in the assay on Strongyloides ratti was 25 mg/kg. Besides, in the assay with Caenorhabditis elegans, the minimal effective concentration was 10 µg/mL.
On to `CN1C(=O)C(C(=O)Nc2ccc(Cl)cc2)C(=O)N(C)P1(=O)Oc1ccc(Cl)cc1` (stereo not shown) [Beispiel 10], for which, in the assay with Caenorhabditis elegans, the minimal effective concentration is 1 µg/mL.
Consider `CN1C(=O)C(C(=O)Nc2cccc(Cl)c2)C(=O)N(C)P1(=O)Oc1cccc(Cl)c1` (stereo not shown) [Beispiel 11], for which, in the assay on Strongyloides ratti, the minimal effective dose came out at 10 mg/kg. For the same compound, in the assay with Caenorhabditis elegans, the minimal effective concentration was 1 µg/mL.
For `CN1C(=O)C(C(=O)Nc2cccc(Cl)c2)C(=O)N(C)P1(=O)Oc1ccc(Cl)cc1` (stereo not shown) [Beispiel 12], the minimal effective concentration in the assay with Caenorhabditis elegans was 100 µg/mL.
On the same count and under the same terms, to `O=C(Nc1ccc(Cl)c(Cl)c1)C1C(=O)N(c2ccccc2)P(=O)(Oc2ccc(Cl)cc2)N(c2ccccc2)C1=O` (stereo not shown) [Beispiel 13] belongs 10 µg/mL; to `O=C(Nc1ccc(Cl)c(Cl)c1)C1C(=O)N(c2ccccc2)P(=O)(Oc2ccccc2)N(c2ccccc2)C1=O` (stereo not shown) [Beispiel 14], 100 µg/mL; to `CC(C)N1C(=O)C(C(=O)Nc2ccc(C(F)(F)F)cc2)C(=O)N(C)P1(=O)Oc1cccc(Cl)c1` (stereo not shown) [Beispiel 17], 10 µg/mL.
Turning to `CC(C)N1C(=O)C(C(=O)Nc2cccc(Cl)c2)C(=O)N(C)P1(=O)Oc1cccc(Cl)c1` (stereo not shown) [Beispiel 18], the minimal effective concentration in the assay with Caenorhabditis elegans was 10 µg/mL.
For the compound `CCN1C(=O)C(C(=O)Nc2cccc(C(F)(F)F)c2)C(=O)N(C)P1(=O)Oc1cccc(Cl)c1` (stereo not shown) [Beispiel 20], in the assay on Strongyloides ratti, the minimal effective dose was determined as 250 mg/kg. Further, the minimal effective concentration in the assay on Caenorhabditis elegans stood at 10 µg/mL.
Turning to `CC(C)N1C(=O)C(C(=O)Nc2cccc(C(F)(F)F)c2)C(=O)N(C)P1(=O)Oc1cccc(Cl)c1` (stereo not shown) [Beispiel 22], the minimal effective dose in the assay with Hymenolepis nana and in the assay with Heterakis spumora was 250 mg/kg in each case. Besides, in the assay with Caenorhabditis elegans, the minimal effective concentration was 10 µg/mL.
Take `Cc1cccc(OP2(=O)N(C)C(=O)C(C(=O)Nc3cccc(C(F)(F)F)c3)C(=O)N2C(C)C)c1` (stereo not shown) [Beispiel 27]: the minimal effective concentration with Caenorhabditis elegans worked out at 10 µg/mL.
Regarding `Cc1cccc(OP2(=O)N(C)C(=O)C(C(=O)Nc3cccc(Cl)c3)C(=O)N2C(C)C)c1` (stereo not shown) [Beispiel 28], the minimal effective concentration with Caenorhabditis elegans is 100 µg/mL.
In the case of `Cc1cccc(OP2(=O)NC(=O)C(C(=O)Nc3cccc(C(F)(F)F)c3)C(=O)N2C)c1` (stereo not shown) [Beispiel 34], the minimal effective concentration with Caenorhabditis elegans came out at 100 µg/mL.
Same read-out and setting: to `Cc1cccc(OP2(=O)N(C)C(=O)C(C(=O)Nc3ccc(Cl)c(Cl)c3)C(=O)N2C(C)C)c1` (stereo not shown) [Beispiel 35] belongs 10 µg/mL; to `CN1C(=O)C(C(=O)Nc2cccc(C(F)(F)F)c2)C(=O)N(C)P1(=O)Oc1cccc(Cl)c1` (stereo not shown) [Beispiel 36], 10 µg/mL; to `CN1C(=O)C(C(=O)Nc2ccc(Cl)c(Cl)c2)C(=O)N(c2ccccc2)P1(=O)Oc1ccc(Cl)cc1` (stereo not shown) [Beispiel 37], 10 µg/mL.
